For one experiment, the target named is SARS-CoV-2 Mpro (Severe acute respiratory syndrome coronavirus 2, UniProt P0DTD1). Nature of the experiment: SARS-CoV-2 Mpro enzymatic inhibition assay (fluorescence). The class given is biochemical. The method, boiled down:
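Recombinant Mpro expressed in E. coli was preincubated 30 min at room temperature with 10-point, 3-fold serially diluted compound in duplicate. Fluorogenic substrate was then added and incubated 60 min at 30° C, and fluorescence read at Ex/Em 340/490 nm. IC50 came from a four-parameter fit of % inhibition.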

The target in the next experiment is HCoV-229E Mpro (Human coronavirus 229E, UniProt P0C6X1). Nature of the experiment: HCoV-229E Mpro enzymatic inhibition assay (fluorescence). Type of experiment: biochemical.
Sequence of HCoV-229E Mpro (P0C6X1 2966-3267 limits assumed): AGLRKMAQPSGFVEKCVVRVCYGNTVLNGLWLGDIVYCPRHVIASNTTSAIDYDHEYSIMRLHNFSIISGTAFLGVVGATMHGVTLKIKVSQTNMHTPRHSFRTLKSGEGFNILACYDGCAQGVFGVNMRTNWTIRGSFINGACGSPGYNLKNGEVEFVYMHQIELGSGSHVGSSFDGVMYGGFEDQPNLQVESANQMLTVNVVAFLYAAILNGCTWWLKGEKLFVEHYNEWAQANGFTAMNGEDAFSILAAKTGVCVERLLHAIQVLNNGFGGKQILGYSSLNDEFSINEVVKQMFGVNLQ
The next experiment addresses HCoV-HKU1 Mpro (Human coronavirus HKU1, UniProt P0C6X2). Nature of the experiment: HCoV-HKU1 Mpro enzymatic inhibition assay (fluorescence). Type of experiment: biochemical. The method, boiled down: (§1)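 IC50 values derive from variable-slope nonlinear regression of percent inhibition, each point corrected by a compound-plus-substrate background well lacking enzyme. Enzyme, pre-incubated 30 min at room temperature with inhibitor, was given substrate and read fluorimetrically (Ex/Em 340/490 nm) after 60 min at 30 °C.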

Another experiment has as its target MERS Mpro (Middle East respiratory syndrome-related coronavirus, UniProt K9N7C7). The experiment can be described thus: biochemical. Also noted: species or system MERS-CoV.
In the next experiment the target is HCoV-NL63 Mpro (Human coronavirus NL63, UniProt P0C6X5). The experiment can be described thus: HCoV-NL63 Mpro enzymatic inhibition assay (fluorescence). The class given is biochemical. An outline of the steps:
as §1

In the next experiment the target is HCoV-OC43 Mpro (Human coronavirus OC43, UniProt P0C6X6). The experiment can be described thus: HCoV-OC43 Mpro enzymatic inhibition assay (fluorescence). The class given is biochemical. An outline of the steps:
as §1

In a further experiment the target is SARS-CoV-1 Mpro (Severe acute respiratory syndrome coronavirus, UniProt P0C6X7). The experiment can be described thus: biochemical.
[1] abbreviates: mean, 25 nM protein, 25 μM substrate, 30 min pre-incubation, 60 min at 30° C., read-out: Mpro_SARS-CoV-2 mean IC50.

Read-outs that look alike come from different tables or passages of the source.

In general, IC50 refers to the concentration that gives 50% inhibition.

Sequence of HCoV-HKU1 Mpro (P0C6X2 3335-3637 limits assumed): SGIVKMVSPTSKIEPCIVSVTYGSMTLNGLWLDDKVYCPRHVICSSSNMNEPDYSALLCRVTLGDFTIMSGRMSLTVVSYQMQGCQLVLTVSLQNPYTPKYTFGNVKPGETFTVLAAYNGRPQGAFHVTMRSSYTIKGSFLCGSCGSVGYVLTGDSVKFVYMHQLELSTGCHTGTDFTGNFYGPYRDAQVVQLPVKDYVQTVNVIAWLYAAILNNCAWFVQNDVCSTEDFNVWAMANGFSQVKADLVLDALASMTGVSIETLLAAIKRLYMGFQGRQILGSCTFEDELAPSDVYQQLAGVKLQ
Sequence of HCoV-OC43 Mpro (P0C6X6 3247-3549 limits assumed): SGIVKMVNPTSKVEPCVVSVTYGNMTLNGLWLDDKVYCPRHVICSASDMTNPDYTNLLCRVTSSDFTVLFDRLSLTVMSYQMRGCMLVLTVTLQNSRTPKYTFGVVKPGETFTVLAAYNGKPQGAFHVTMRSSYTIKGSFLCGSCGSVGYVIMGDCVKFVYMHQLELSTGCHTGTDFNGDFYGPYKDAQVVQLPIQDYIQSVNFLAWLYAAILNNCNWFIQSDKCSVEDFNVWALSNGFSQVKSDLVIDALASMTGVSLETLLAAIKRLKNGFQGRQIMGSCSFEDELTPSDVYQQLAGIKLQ
Sequence of MERS Mpro (K9N7C7 3248-3553 limits assumed): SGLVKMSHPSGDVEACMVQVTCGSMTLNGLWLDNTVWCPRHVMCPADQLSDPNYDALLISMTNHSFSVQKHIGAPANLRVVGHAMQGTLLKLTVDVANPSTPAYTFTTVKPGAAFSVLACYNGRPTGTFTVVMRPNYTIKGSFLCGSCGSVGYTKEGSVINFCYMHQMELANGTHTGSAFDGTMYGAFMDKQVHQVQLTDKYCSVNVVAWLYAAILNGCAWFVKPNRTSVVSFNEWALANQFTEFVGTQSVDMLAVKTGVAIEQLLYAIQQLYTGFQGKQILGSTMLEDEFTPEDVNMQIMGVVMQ
Sequence of HCoV-NL63 Mpro (P0C6X5 2940-3242 limits assumed): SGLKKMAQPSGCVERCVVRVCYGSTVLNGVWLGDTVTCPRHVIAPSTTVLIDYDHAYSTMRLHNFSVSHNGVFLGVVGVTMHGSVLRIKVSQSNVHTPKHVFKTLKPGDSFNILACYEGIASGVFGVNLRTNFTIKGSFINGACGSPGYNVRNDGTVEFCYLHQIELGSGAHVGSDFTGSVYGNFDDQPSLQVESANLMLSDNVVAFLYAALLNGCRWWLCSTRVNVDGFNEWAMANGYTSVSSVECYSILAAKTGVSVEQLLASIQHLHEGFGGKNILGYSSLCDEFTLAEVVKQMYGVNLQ

For the molecule `CC1(C)[C@@H]2[C@@H](C(=O)N[C@H](C=O)C[C@@H]3CCNC3=O)N(C(=O)c3cc4c(Cl)cccc4[nH]3)C[C@@H]21` [Compound 43, (1R,2S,5S)-3-(4-Chloro-1H-indole-2-carbonyl)-6,6-dimethyl-N—((S)-1-oxo-3-((S)-2-oxopyrrolidin-3-yl)propan-2-yl)-3-azabicyclo[3.1.0]hexane-2-carboxamide], the 50% inhibitory concentration (IC50) at SARS-CoV-2 Mpro worked out at 0.0221 µM; against HCoV-229E Mpro, 0.0393 µM; against HCoV-HKU1 Mpro it was 0.018 µM; against MERS Mpro, 0.236 µM; at HCoV-NL63 Mpro it was 0.0475 µM; against HCoV-OC43 Mpro, 0.0454 µM. The 50% inhibitory concentration (IC50) on SARS-CoV-1 Mpro was 0.0258 µM.
Turning to `O=C[C@H](C[C@@H]1CCNC1=O)NC(=O)[C@@H]1CC2(CC2)CN1C(=O)c1cc2ccccc2[nH]1` [Compound 47, (S)-5-(1H-Indole-2-carbonyl)-N—((S)-1-oxo-3-((S)-2-oxopyrrolidin-3-yl)propan-2-yl)-5-azaspiro[2.4]heptane-6-carboxamide], the concentration for half-maximal inhibition (IC50) at SARS-CoV-2 Mpro (setting [1]) stood at 0.0228 µM; against HCoV-229E Mpro it was 0.0478 µM; on HCoV-HKU1 Mpro, 0.0168 µM; against MERS Mpro it was 0.139 µM; at HCoV-NL63 Mpro, 0.048 µM; against HCoV-OC43 Mpro it was 0.064 µM. Moreover, inhibition against SARS-CoV-1 Mpro was half-maximal at 0.043 µM (IC50).
For the molecule `CC(C)(C(=O)N1C[C@H]2[C@@H]([C@H]1C(=O)N[C@H](C=O)C[C@@H]1CCNC1=O)C2(C)C)c1ccccc1` [Compound 48, (1R,2S,5S)-6,6-dimethyl-3-(2-methyl-2-phenylpropanoyl)-N—((S)-1-oxo-3-((S)-2-oxopyrrolidin-3-yl)propan-2-yl)-3-azabicyclo[3.1.0]hexane-2-carboxamide], the IC50 stood at 0.0229 µM on SARS-CoV-2 Mpro (setting [1]); 0.0869 µM on HCoV-229E Mpro; 0.0734 µM on HCoV-HKU1 Mpro; 0.484 µM against MERS Mpro; 0.376 µM against HCoV-NL63 Mpro; 0.164 µM against HCoV-OC43 Mpro. For the same molecule, the IC50 against SARS-CoV-1 Mpro was determined as 0.0536 µM.
As for `CC1(C)[C@@H]2[C@@H](C(=O)N[C@H](C=O)C[C@@H]3CCNC3=O)N(C(=O)c3cc4c(F)ccc(Cl)c4[nH]3)C[C@@H]21` [Compound 49, (1R,2S,5S)-3-(7-chloro-4-fluoro-1H-indole-2-carbonyl)-6,6-dimethyl-N—((S)-1-oxo-3-((S)-2-oxopyrrolidin-3-yl)propan-2-yl)-3-azabicyclo[3.1.0]hexane-2-carboxamide], the IC50 was determined as 0.023 µM at SARS-CoV-2 Mpro; 0.0315 µM against HCoV-229E Mpro; 0.0234 µM against HCoV-HKU1 Mpro; 0.202 µM at MERS Mpro; 0.0576 µM on HCoV-NL63 Mpro; 0.037 µM against HCoV-OC43 Mpro. Half-maximal inhibition against SARS-CoV-1 Mpro (IC50) was put at 0.0294 µM.
With `CC1(C)C[C@@H](C(=O)N[C@H](C=O)C[C@@H]2CCNC2=O)N(C(=O)c2cc3c(F)cccc3[nH]2)C1` [Compound 51, (S)-1-(4-Fluoro-1H-indole-2-carbonyl)-4,4-dimethyl-N—((S)-1-oxo-3-((S)-2-oxopyrrolidin-3-yl)propan-2-yl)pyrrolidine-2-carboxamide], the IC50 on SARS-CoV-2 Mpro stood at 0.0244 µM; on HCoV-229E Mpro, 0.0273 µM; at HCoV-HKU1 Mpro, 0.013 µM; at MERS Mpro, 0.192 µM; against HCoV-NL63 Mpro it was 0.0222 µM; against HCoV-OC43 Mpro, 0.0219 µM. Half-maximal inhibition on SARS-CoV-1 Mpro (IC50) was put at 0.038 µM.
Take `CC1CCC(CC(=O)N2C[C@H]3[C@@H]([C@H]2C(=O)N[C@H](C=O)C[C@@H]2CCNC2=O)C3(C)C)CC1` (stereo partly drawn) [Compound 52, (1R,2S,5S)-6,6-dimethyl-3-(2-(4-methylcyclohexyl)acetyl)-N—((S)-1-oxo-3-((S)-2-oxopyrrolidin-3-yl)propan-2-yl)-3-azabicyclo[3.1.0]hexane-2-carboxamide]: the IC50 came out at 0.0246 µM against SARS-CoV-2 Mpro; 0.0314 µM at HCoV-229E Mpro; 0.025 µM at HCoV-HKU1 Mpro; 0.214 µM against MERS Mpro; 0.0613 µM against HCoV-NL63 Mpro; 0.052 µM on HCoV-OC43 Mpro. In addition, the half-inhibitory concentration (IC50) on SARS-CoV-1 Mpro was 0.0326 µM.
For `CC1(C)[C@@H]2[C@@H](C(=O)N[C@H](C=O)C[C@@H]3CCNC3=O)N(C(=O)CC3CCCCC3)C[C@@H]21` [Compound 53, (1R,2S,5S)-3-(2-cyclohexylacetyl)-6,6-dimethyl-N—((S)-1-oxo-3-((S)-2-oxopyrrolidin-3-yl)propan-2-yl)-3-azabicyclo[3.1.0]hexane-2-carboxamide], the IC50 is 0.025 µM at SARS-CoV-2 Mpro (setting [1]); 0.0297 µM on HCoV-229E Mpro; 0.0255 µM at HCoV-HKU1 Mpro; 0.326 µM at MERS Mpro; 0.0665 µM at HCoV-NL63 Mpro; 0.0263 µM at HCoV-OC43 Mpro. In addition, half-maximal inhibition against SARS-CoV-1 Mpro (IC50) was put at 0.0457 µM.
As for `CC1(C)[C@@H]2[C@@H](C(=O)N[C@H](C=O)C[C@@H]3CCNC3=O)N(C(=O)CN3CCCCCC3)C[C@@H]21` [Compound 55, (1R,2S,5S)-3-(2-(Azepan-1-yl)acetyl)-6,6-dimethyl-N—((S)-1-oxo-3-((S)-2-oxopyrrolidin-3-yl)propan-2-yl)-3-azabicyclo[3.1.0]hexane-2-carboxamide], the IC50 was 0.0255 µM at SARS-CoV-2 Mpro; 0.0393 µM against HCoV-229E Mpro; 0.0548 µM on HCoV-HKU1 Mpro; 0.317 µM at MERS Mpro; 0.0702 µM against HCoV-NL63 Mpro; 0.081 µM at HCoV-OC43 Mpro. The IC50 at SARS-CoV-1 Mpro amounted to 0.0746 µM.
With `COc1ccc2cc(C(=O)N3C[C@H]4[C@@H]([C@H]3C(=O)N[C@H](C=O)C[C@@H]3CCNC3=O)C4(C)C)[nH]c2c1` [Compound 56, (1R,2S,5S)-3-(6-Methoxy-1H-indole-2-carbonyl)-6,6-dimethyl-N—((S)-1-oxo-3-((S)-2-oxopyrrolidin-3-yl)propan-2-yl)-3-azabicyclo[3.1.0]hexane-2-carboxamide], the IC50 against SARS-CoV-2 Mpro turned out to be 0.0257 µM; against HCoV-229E Mpro, 0.0426 µM; at HCoV-HKU1 Mpro it was 0.0128 µM; against MERS Mpro it was 0.291 µM; against HCoV-NL63 Mpro it was 0.0599 µM; on HCoV-OC43 Mpro, 0.0598 µM. Further, on SARS-CoV-1 Mpro, the IC50 was 0.0647 µM.
Turning to `CC1(C)C[C@@H](C(=O)N[C@H](C=O)C[C@@H]2CCNC2=O)N(C(=O)c2cc3cccc(C#N)c3[nH]2)C1` [Compound 58, (S)-1-(7-Cyano-1H-indole-2-carbonyl)-4,4-dimethyl-N—((S)-1-oxo-3-((S)-2-oxopyrrolidin-3-yl)propan-2-yl)pyrrolidine-2-carboxamide], the IC50 on SARS-CoV-2 Mpro is 0.0258 µM; on HCoV-229E Mpro, 0.0285 µM; on HCoV-HKU1 Mpro, 0.019 µM; against MERS Mpro, 0.338 µM; at HCoV-NL63 Mpro, 0.0407 µM; at HCoV-OC43 Mpro it was 0.0563 µM. For the same molecule, on SARS-CoV-1 Mpro, the IC50 is 0.0628 µM.
For the molecule `CC1(C)[C@@H]2[C@@H](C(=O)N[C@H](C=O)C[C@@H]3CCNC3=O)N(C(=O)c3cc4c(C#N)cccc4[nH]3)C[C@@H]21` [Compound 59, (1R,2S,5S)-3-(4-Cyano-1H-indole-2-carbonyl)-6,6-dimethyl-N—((S)-1-oxo-3-((S)-2-oxopyrrolidin-3-yl)propan-2-yl)-3-azabicyclo[3.1.0]hexane-2-carboxamide], the IC50 on SARS-CoV-2 Mpro (setting [1]) is 0.026 µM; on HCoV-229E Mpro, 0.0426 µM; against HCoV-HKU1 Mpro, 0.0229 µM; at MERS Mpro it was 0.23 µM; on HCoV-NL63 Mpro, 0.0641 µM; against HCoV-OC43 Mpro, 0.0575 µM. In addition, inhibition against SARS-CoV-1 Mpro was half-maximal at 0.0834 µM (IC50).
For `CC1(C)[C@@H]2[C@@H](C(=O)N[C@H](C=O)C[C@@H]3CCNC3=O)N(C(=O)c3cc4ccccc4[nH]3)C[C@@H]21` [Compound 60, (1R,2S,5S)-3-(1H-Indole-2-carbonyl)-6,6-dimethyl-N—((S)-1-oxo-3-((S)-2-oxopyrrolidin-3-yl)propan-2-yl)-3-azabicyclo[3.1.0]hexane-2-carboxamide], the IC50 on SARS-CoV-2 Mpro (setting [1]) was found to be 0.026 µM; against HCoV-229E Mpro, 0.0537 µM; against HCoV-HKU1 Mpro it was 0.0289 µM; against MERS Mpro it was 0.273 µM; on HCoV-NL63 Mpro, 0.054 µM; at HCoV-OC43 Mpro it was 0.0949 µM. In addition, the concentration for half-maximal inhibition (IC50) against SARS-CoV-1 Mpro is 0.052 µM.
Consider `O=C[C@H](C[C@@H]1CCNC1=O)NC(=O)[C@@H]1C[C@@H](C2CCCCC2)CN1C(=O)c1cc2ccccc2[nH]1` [Compound 61, (2S,4S)-4-Cyclohexyl-1-(1H-indole-2-carbonyl)-N—((S)-1-oxo-3-((S)-2-oxopyrrolidin-3-yl)propan-2-yl)pyrrolidine-2-carboxamide], for which the IC50 at SARS-CoV-2 Mpro (setting [1]) came out at 0.026 µM; against HCoV-229E Mpro, 0.0432 µM; at HCoV-HKU1 Mpro, 0.0126 µM; against MERS Mpro, 0.438 µM; against HCoV-NL63 Mpro, 0.2 µM; against HCoV-OC43 Mpro it was 0.0387 µM. At SARS-CoV-1 Mpro, this molecule showed an IC50 of 0.147 µM.
Consider `CC1(C)C[C@@H](C(=O)N[C@H](C=O)C[C@@H]2CCNC2=O)N(C(=O)c2cc3cccc(F)c3[nH]2)C1` [Compound 62, (S)-1-(7-Fluoro-1H-indole-2-carbonyl)-4,4-dimethyl-N—((S)-1-oxo-3-((S)-2-oxopyrrolidin-3-yl)propan-2-yl)pyrrolidine-2-carboxamide], for which the IC50 on SARS-CoV-2 Mpro was 0.0263 µM; on HCoV-229E Mpro, 0.0644 µM; against HCoV-HKU1 Mpro it was 0.0557 µM; against MERS Mpro, 0.535 µM; on HCoV-NL63 Mpro, 0.0907 µM; on HCoV-OC43 Mpro it was 0.145 µM. The concentration for half-maximal inhibition (IC50) at SARS-CoV-1 Mpro was 0.0771 µM.

The values are drawn from US20260355212A1 (priority 2022, published 2026).
